Measured values: ChEMBL document CHEMBL5154882, “Discovery of 4-Hydroxyquinazoline Derivatives as Small Molecular BET/PARP1 Inhibitors That Induce Defective Homologous Recombination and Lead to Synthetic Lethality for Triple-Negative Breast Cancer Therapy” (J Med Chem, 2022)
Activity calls are given as the source filed them. No cut-off for these calls is given here.

How the values were obtained:
MDA-MB-468 [1] = experiment: Antiproliferative activity against human MDA-MB-468 cells assessed as reduction in cell viability incubated for 72 hrs by MTT assay; type: functional, cell-based; conditions: MDA-MB-468, 72 h
[2] = target: T1, Bromodomain-containing protein 4 (Homo sapiens, UniProt O60885); experiment: Inhibition of BRD4 (unknown origin) at 1 uM relative to control
MDA-MB-468 [3] = experiment: Cell cycle arrest in human MDA-MB-468 cells assessed as accumulation at G0/G1 phase at 5 uM incubated for 72 hrs by propidium iodide staining-based flow cytometry analysis (reference value: 61.4%); type: functional
MDA-MB-468 [4] = experiment: Cell cycle arrest in human MDA-MB-468 cells assessed as accumulation at G0/G1 phase at 10 uM incubated for 72 hrs by propidium iodide staining-based flow cytometry analysis (reference value: 61.4%); type: functional
MDA-MB-468 [5] = experiment: Cell cycle arrest in human MDA-MB-468 cells assessed as accumulation at S phase at 5 uM incubated for 72 hrs by propidium iodide staining-based flow cytometry analysis (reference value: 21.1%); type: functional
MDA-MB-468 [6] = experiment: Cell cycle arrest in human MDA-MB-468 cells assessed as accumulation at G2/M phase at 5 uM incubated for 72 hrs by propidium iodide staining-based flow cytometry analysis (reference value: 16.1%); type: functional
MDA-MB-468 [7] = experiment: Cell cycle arrest in human MDA-MB-468 cells assessed as accumulation at G2/M phase at 20 uM incubated for 72 hrs by propidium iodide staining-based flow cytometry analysis (reference value: 16.1%); type: functional
MDA-MB-468 [8] = experiment: Induction of apoptosis in human MDA-MB-468 cells assessed as early apoptotic cells at 10 uM incubated for 72 hrs by annexin V/propidium iodide staining-based flow cytometry analysis (reference value: 4.07%); type: functional
MDA-MB-468 [9] = experiment: Induction of apoptosis in human MDA-MB-468 cells assessed as late apoptotic cells at 5 uM incubated for 72 hrs by annexin V/propidium iodide staining-based flow cytometry analysis (reference value: 1.34%); type: functional
MDA-MB-468 [10] = experiment: Induction of apoptosis in human MDA-MB-468 cells assessed as downregulation of Bcl-2 protein level at 20 uM incubated for 72 hrs by Western blot analysis; type: functional, cell-based
MDA-MB-468 [11] = experiment: Induction of apoptosis in human MDA-MB-468 cells assessed as up-regulation of Bax protein level at 20 uM incubated for 72 hrs by Western blot analysis; type: functional, cell-based
MDA-MB-468 [12] = experiment: Inhibition of clone formation in human MDA-MB-468 cells measured after 10 days by crystal violet staining based analysis; type: functional, cell-based; conditions: dose 5-20 µM, time 10.0 day, DDE = dose-dependent effect
MDA-MB-468 [13] = experiment: Inhibition of homologous recombinant repair in human MDA-MB-468 cells assessed as down-regulation of CtlP expression at 5 to 20 uM in by Western blot analysis; type: functional, cell-based; conditions: dose 5-20 µM
MDA-MB-468 [14] = experiment: Inhibition of homologous recombinant repair in human MDA-MB-468 cells assessed as down-regulation of p-RPA32 expression at 5 to 20 uM in by Western blot analysis; type: functional, cell-based; conditions: dose 5-20 µM
MDA-MB-468 [15] = experiment: Induction of DNA damage in human MDA-MB-468 cells assessed as up-regulation of gammaH2AX expression level at 5 to 20 uMby DAPI staining based immunofluorescence assay; type: functional, cell-based; conditions: dose 5-20 µM
[16] = Half life in Sprague-Dawley rat at 1 mg/kg, iv; type: ADME, organism-based; conditions: in vivo
[17] = AUC (0 to t) in Sprague-Dawley rat at 1 mg/kg, iv; type: ADME, organism-based; design: dose 1 mg/kg, route iv; conditions: in vivo
[18] = AUC (0 to infinity) in Sprague-Dawley rat at 1 mg/kg, iv; type: ADME, organism-based; design: time infinity, dose 1 mg/kg, route iv; conditions: in vivo
[19] = Half life in Sprague-Dawley rat at 10 mg/kg, po; type: ADME, organism-based; conditions: in vivo
[20] = Cmax in Sprague-Dawley rat at 10 mg/kg, po; type: ADME, organism-based; design: dose 10 mg/kg, route po; conditions: in vivo
[21] = AUC (0 to infinity) in Sprague-Dawley rat at 10 mg/kg, po; type: ADME, organism-based; design: time infinity, dose 10 mg/kg, route po; conditions: in vivo
MDA-MB-468 [22] = experiment: Antitumor activity against human MDA-MB-468 cells xenografted in BALB/c nude mouse model assessed as tumor growth inhibition at 40 to 80 mg/kg, ig administered daily for 16 days measured every 3 days relative to control; type: functional; conditions: dose 40-80 mg/kg, time 16 day
[23] = Toxicity in BALB/c nude mouse xenografted with human MDA-MB-468 cells assessed as change in body weight at 40 to 80 mg/kg, ig administered daily for 16 days measured every 3 days; type: organism-based; conditions: in vivo, po, 384 h, dose 40-80 mg/kg, time 16 day
[24] = Toxicity in BALB/c nude mouse xenografted with human MDA-MB-468 cells assessed as death at 80 mg/kg, ig administered daily for 16 days measured every 3 days; type: organism-based; conditions: in vivo, po, 384 h, time 16 day
[25] = Toxicity in BALB/c nude mouse xenografted with human MDA-MB-468 cells assessed as morphological changes in spleen at 80 mg/kg, ig administered daily for 16 days measured every 3 days by hematoxyin-eosin staining based analysis; type: organism-based; conditions: in vivo, po, 384 h, time 16 day
[26] = Toxicity in BALB/c nude mouse xenografted with human MDA-MB-468 cells assessed as morphological changes in spleen at 40 to 80 mg/kg, ig administered daily for 16 days measured every 3 days by hematoxyin-eosin staining based analysis; type: organism-based; conditions: in vivo, po, 384 h, dose 40-80 mg/kg, time 16 day
[27] = Toxicity in BALB/c nude mouse xenografted with human MDA-MB-468 cells assessed as morphological changes in lung at 80 mg/kg, ig administered daily for 16 days measured every 3 days by hematoxyin-eosin staining based analysis; type: organism-based; conditions: in vivo, po, 384 h, time 16 day
MDA-MB-231 [28] = experiment: Antitumor activity against human MDA-MB-231 cells xenografted in BALB/c nude mouse assessed as tumor growth inhibition at 40 to 80 mg/kg incubated for 30 to 40 mins by Ki-67 staining based immunohistochemical analysis; type: functional, organism-based; conditions: dose 40-80 mg/kg, time 30-40 min
MDA-MB-231 [29] = experiment: Antitumor activity against human MDA-MB-231 cells xenografted in BALB/c nude mouse assessed as reduction in PAR expression at 40 to 80 mg/kg incubated for 30 to 40 mins by immunohistochemical analysis; type: functional, organism-based; conditions: dose 40-80 mg/kg, time 30-40 min
MDA-MB-231 [30] = experiment: Antitumor activity against human MDA-MB-231 cells xenografted in BALB/c nude mouse assessed as reduction in Rad51 expression at 40 to 80 mg/kg incubated for 30 to 40 mins by immunohistochemical analysis; type: functional, organism-based; conditions: dose 40-80 mg/kg, time 30-40 min
MDA-MB-231 [31] = experiment: Antitumor activity against human MDA-MB-231 cells xenografted in BALB/c nude mouse assessed as downregulation of c-Myc at 80 mg/kg by Western blot analysis; type: functional, organism-based
MDA-MB-231 [32] = experiment: Antitumor activity against human MDA-MB-231 cells xenografted in BALB/c nude mouse assessed as downregulation of PAR at 80 mg/kg by Western blot analysis; type: functional, organism-based
[33] = target: T1, Bromodomain-containing protein 4; experiment: Inhibition of BRD4 (unknown origin)
[34] = target: T1, Bromodomain-containing protein 4; experiment: Binding affinity to BRD4 in human MDA-MB-468 cells assessed as increase in thermal stability at 5 uM by cellular thermal shift assay; type: cell-based
MDA-MB-468 [35] = experiment: Downregulation of BRD4 expression level in human MDA-MB-468 cells by Western blot analysis; type: functional, cell-based; conditions: dose 5-20 µM, DDE = dose-dependent effect
[36] = target: Poly [ADP-ribose] polymerase 1 (Homo sapiens, UniProt P09874)
Chain of Poly [ADP-ribose] polymerase 1 (P09874 whole entry): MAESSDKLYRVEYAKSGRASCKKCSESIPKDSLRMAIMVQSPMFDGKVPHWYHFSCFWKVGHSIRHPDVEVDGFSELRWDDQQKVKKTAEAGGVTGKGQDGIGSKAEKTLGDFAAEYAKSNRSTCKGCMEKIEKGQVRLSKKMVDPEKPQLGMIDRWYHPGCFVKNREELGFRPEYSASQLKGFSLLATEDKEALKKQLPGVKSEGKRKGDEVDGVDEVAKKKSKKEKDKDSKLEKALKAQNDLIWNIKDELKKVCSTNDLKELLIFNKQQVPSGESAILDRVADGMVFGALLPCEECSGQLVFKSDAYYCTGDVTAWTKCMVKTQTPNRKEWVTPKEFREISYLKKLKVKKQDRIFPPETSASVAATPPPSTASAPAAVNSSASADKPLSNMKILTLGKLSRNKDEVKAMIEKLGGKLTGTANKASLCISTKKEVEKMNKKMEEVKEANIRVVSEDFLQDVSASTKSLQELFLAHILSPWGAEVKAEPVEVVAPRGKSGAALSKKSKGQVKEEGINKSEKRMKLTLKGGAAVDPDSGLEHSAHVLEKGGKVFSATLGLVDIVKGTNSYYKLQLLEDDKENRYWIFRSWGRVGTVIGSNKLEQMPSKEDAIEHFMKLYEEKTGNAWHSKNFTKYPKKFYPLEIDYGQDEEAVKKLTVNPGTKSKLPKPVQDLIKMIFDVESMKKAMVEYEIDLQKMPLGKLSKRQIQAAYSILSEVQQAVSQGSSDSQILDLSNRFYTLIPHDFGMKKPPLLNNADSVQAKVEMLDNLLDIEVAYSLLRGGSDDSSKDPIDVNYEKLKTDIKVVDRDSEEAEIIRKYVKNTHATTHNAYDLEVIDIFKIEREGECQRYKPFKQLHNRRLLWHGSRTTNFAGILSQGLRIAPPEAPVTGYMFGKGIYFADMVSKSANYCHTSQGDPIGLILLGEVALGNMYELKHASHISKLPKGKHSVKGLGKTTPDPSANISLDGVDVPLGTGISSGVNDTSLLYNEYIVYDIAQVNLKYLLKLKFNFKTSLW
Description: Inhibition of PARP1 (unknown origin)

COc1cc(OC)c2c(=O)[nH]c(-c3cccc(Cc4n[nH]c(=O)c5ccccc45)c3)nc2c1
IC50 (MDA-MB-468 [1]): 3.01 µM
inhibition [2]: 76.2%
Activity (MDA-MB-468 [3]): 62.3%
Activity (MDA-MB-468 [4]): 63.2%
Activity (MDA-MB-468 [5]): 22.2%
Activity (MDA-MB-468 [6]): 16.6%
Activity (MDA-MB-468 [7]): 14%
Activity (MDA-MB-468 [8]): 25.61%
Activity (MDA-MB-468 [9]): 6.08%
Activity (MDA-MB-468 [10]): Active
Activity (MDA-MB-468 [11]): Active
inhibition (MDA-MB-468 [12]): Dde
inhibition (MDA-MB-468 [13]): Active
inhibition (MDA-MB-468 [14]): Active
Activity (MDA-MB-468 [15]): Active
t1/2 [16]: 3.02 h
AUC(0-t) [17]: 629 ng·h/mL
AUC(0-inf) [18]: 642 ng·h/mL
half-life [19]: 3.33 h
Cmax [20]: 242 ng/mL
AUC(0-inf) [21]: 1530 ng·h/mL
TGI (MDA-MB-468 [22]): 68.7%
Activity [23]: Non-Toxic
Activity [24]: Non-Toxic
Activity [25]: Non-Toxic
Activity [26]: Non-Toxic
Activity [27]: Non-Toxic
Activity (MDA-MB-231 [28]): Active
Activity (MDA-MB-231 [29]): Active
Activity (MDA-MB-231 [30]): Active
Activity (MDA-MB-231 [31]): Active
Activity (MDA-MB-231 [32]): Active
IC50 [33]: 0.238 µM
Activity [34]: Active
Activity (MDA-MB-468 [35]): Dde
IC50 [36]: 0.197 µM
